Laboratory results reported in patent US20080312171A1, “Tetracycline-Dependent Regulation of Rna Interference” (CENTRE NATIONAL DE LA RECHERCHE SCIENTIFIQUE, priority 2005, published 2008).

Experiments:
Assay type in all cases: cell-based
[1] = tested on: GFP expression in HEK 293T GFP cell clones; assay: GFP fluorescence (FACS, microscopy) in cell clones from transduced HEK 293T GFP cells, Dox-controlled RNAi
[2] = tested on: GFP expression in HEK 293T GFP cells; assay: FACS analysis of GFP-positive cells, vector-transduced HEK 293T GFP cells with and without Dox; conditions: various amounts of vector, Dox 6 μg/ml, 5 days
human p53 = assay: Western blot analysis of p53 silencing by Dox-regulated RNAi in HEK 293T, MCF-7 and A549 cells; conditions: transduced HEK 293T, Dox 6 μg/ml, 5-7 days, densitometric analysis
Protocol: Cells (1×10^5) were incubated overnight with indicated quantities of vector, expressed as ng of protein p24, and then cultivated in the absence and in the presence of 6 μg/ml Dox. After a 5 day (MCF-7 and A549 cells) and a 7 day cultivation (HEK 293T cells), protein was extracted from the cells and analyzed by immunoblotting.
Inventors constructed a second vector, which contained a shRNA encoding sequence designed to silence expression of human p53 as described (1). […] The expression of p53 was not reduced when non-transduced cells were incubated in the presence of Dox (6 μg/ml).
Cell extracts were prepared in lysis buffer [25 mM Tris-HCl (pH 7.5), 1% Triton X-100, 0.5% sodium deoxycholate, 5 mM EDTA, 150 mM NaCl] containing a cocktail of protease inhibitors (Roche, Meylan, France). The protein samples (30 μg) were separated on SDS-9% polyacrylamide gels and then transferred to Protan nitrocellulose membranes (Schleicher and Shuell, Dassel, Germany) in an electroblotting apparatus, using standard procedures (26). Immunodetection was performed as described in Tejedor-Real et al. (27), using a monoclonal anti-p53 antibody (BD Biosciences, Erembodegem, Belgium), a monoclonal anti-actin antibody (Chemicon, Hampshire, UK) and an anti-mouse Ig-horseradish peroxidase (HRP) conjugate (Amersham Biosciences).

C[C@H]1c2cccc(O)c2C(=O)C2=C(O)[C@]3(O)C(=O)C(C(N)=O)=C(O)[C@@H](N(C)C)[C@@H]3[C@@H](O)[C@@H]21 [Dox, Doxycycline]
MFI (+Dox) ([1]; clone C1): 4 | Regulation factor ([1]; clone C1, MFI (−Dox) over MFI (+Dox)): 52 | MFI (+Dox) ([1]; clone C9): 32 | reduction of GFP fluorescence ([1]; clone C9, 6 μg/ml Dox, after 5-6 days, FACS): 90% | Regulation factor ([1]; clone C9, MFI (−Dox) over MFI (+Dox)): 9.7 | concentration required to induce a 90% suppression of GFP ([1]; clone C9, within 5 days): about 6 μg/ml | MFI (+Dox) ([1]; clone D8): 9 | Regulation factor ([1]; clone D8, MFI (−Dox) over MFI (+Dox)): 24 | MFI (+Dox) ([1]; clone H6): 77 | Regulation factor ([1]; clone H6, MFI (−Dox) over MFI (+Dox)): 4.4 | reduction of the number of GFP-expressing cells [2]: up to 60% | inhibition of the expression of p53 (human p53): up to 90%
